The target of series [1] is CYP2C9 (Homo sapiens, UniProt P11712). To be noted: 4 μM, pH 7.4. The method, then: The remaining of TA (expressed as the peak area ratio of test article to IS) was determined by LC-MS/MS. CYP enzyme activities of the HLM were verified in parallel by determining the formation of individual CYP probe metabolites by LC-MS/MS using standard curves.
The target in series [2] is hrCYP2C9 (Homo sapiens, UniProt P11712).
Series [3] can be described thus: CYP reaction phenotyping: CYP control (negative control without CYP enzymes). The settings on record: pH 7.4. The method, then: The reaction was initiated by the addition of NADPH, followed by incubation at 37° C.
Series [4] addresses CYP2D6 (Homo sapiens, UniProt P10635). As to the kind of experiment: Inhibition of CYP2D6 activity in human liver microsomes. Set-up: co-incubated with pooled HLM (0.25 mg protein/mL); from tissue; host or cells: pooled human liver microsomes. The settings on record: pooled human liver microsomes, pH 7.4, read-out: % of Control Enzyme Activity (n = 3) Average. Type of series: in vitro ADME.

The target in series [5] is T1, OCT2 (Homo sapiens, UniProt O15244).
T1 sequence (O15244 1-555): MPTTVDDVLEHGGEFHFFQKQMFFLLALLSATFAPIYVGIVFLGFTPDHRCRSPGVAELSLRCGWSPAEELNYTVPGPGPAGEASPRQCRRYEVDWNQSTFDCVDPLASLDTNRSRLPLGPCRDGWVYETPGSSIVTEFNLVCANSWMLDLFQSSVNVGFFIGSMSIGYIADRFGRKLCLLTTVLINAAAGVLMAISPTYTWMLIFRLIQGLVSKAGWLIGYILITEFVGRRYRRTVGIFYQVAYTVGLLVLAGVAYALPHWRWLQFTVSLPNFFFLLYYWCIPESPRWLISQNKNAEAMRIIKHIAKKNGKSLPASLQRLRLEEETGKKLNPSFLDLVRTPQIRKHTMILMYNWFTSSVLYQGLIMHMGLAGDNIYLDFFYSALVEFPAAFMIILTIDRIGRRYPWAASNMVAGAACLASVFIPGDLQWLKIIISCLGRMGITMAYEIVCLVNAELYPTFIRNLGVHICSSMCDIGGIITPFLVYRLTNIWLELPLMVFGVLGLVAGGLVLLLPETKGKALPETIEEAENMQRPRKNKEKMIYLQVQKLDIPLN
As to the kind of experiment: in vitro. To be noted: probe MPP+ (5 μM).

In series [6] the target is T1, OCT2. Description: OCT2 inhibitor (IC50) assessment, MPP+ uptake in transfected HEK cells. To be noted: 5 μM MPP+ + 300 μM Imipramine.
Series [7] addresses T2, OAT3 (Homo sapiens, UniProt Q8TCC7).
T2 sequence (Q8TCC7 1-542): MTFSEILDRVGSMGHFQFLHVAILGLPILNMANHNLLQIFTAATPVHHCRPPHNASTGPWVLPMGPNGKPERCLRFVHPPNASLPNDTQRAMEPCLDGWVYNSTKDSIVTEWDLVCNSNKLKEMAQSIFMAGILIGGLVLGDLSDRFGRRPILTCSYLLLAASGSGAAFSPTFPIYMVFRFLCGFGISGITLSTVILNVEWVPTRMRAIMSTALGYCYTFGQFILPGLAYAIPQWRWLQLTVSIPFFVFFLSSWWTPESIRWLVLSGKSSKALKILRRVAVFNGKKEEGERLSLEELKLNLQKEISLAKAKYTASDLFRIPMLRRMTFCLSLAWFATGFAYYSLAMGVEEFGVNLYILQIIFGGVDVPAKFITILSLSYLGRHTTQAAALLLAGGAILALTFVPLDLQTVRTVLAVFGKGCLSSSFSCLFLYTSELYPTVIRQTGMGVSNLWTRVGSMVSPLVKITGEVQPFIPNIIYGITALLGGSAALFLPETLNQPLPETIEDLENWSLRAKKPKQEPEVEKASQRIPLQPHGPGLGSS
As to the kind of experiment: OAT3 inhibitor (IC50) assessment, furosemide uptake in transfected HEK cells. The settings on record: 5 μM Furosemide + 100 μM Probenecid.

For series [8], the target named is T2, OAT3. Description: in vitro. The settings on record: probe furosemide (5 μM).
Series [9] addresses T3, MATE2K (Homo sapiens, UniProt Q86VL8). As to the kind of experiment: in vitro. The settings on record: probe metformin (50 μM).
In series [10] the target is T3, MATE2K. As to the kind of experiment: MATE2K inhibitor (IC50) assessment, metformin uptake in transfected HEK cells. To be noted: 50 μM Metformin + 1 μM Pyrimethamine.

In general, inhibition refers to the percentage by which the read-out fell short of the control. Low readings indicate a response near the control, high ones a response far below the control.

Chain of hrCYP2C9 (P11712 whole entry): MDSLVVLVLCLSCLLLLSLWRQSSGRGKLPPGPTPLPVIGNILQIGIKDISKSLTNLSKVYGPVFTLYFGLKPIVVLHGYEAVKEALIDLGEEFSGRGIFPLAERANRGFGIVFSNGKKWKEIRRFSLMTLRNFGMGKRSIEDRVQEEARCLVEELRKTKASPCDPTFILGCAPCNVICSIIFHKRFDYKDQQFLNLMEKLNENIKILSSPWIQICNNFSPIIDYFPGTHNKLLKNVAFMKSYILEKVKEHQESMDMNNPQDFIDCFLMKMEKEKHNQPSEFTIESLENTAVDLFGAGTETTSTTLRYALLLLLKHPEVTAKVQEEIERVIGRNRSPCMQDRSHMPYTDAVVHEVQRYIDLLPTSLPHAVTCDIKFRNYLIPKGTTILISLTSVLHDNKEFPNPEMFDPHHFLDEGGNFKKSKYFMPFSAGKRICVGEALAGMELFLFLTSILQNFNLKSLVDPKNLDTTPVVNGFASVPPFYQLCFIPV
T3 sequence (Q86VL8 1-566 isoform Q86VL8-3): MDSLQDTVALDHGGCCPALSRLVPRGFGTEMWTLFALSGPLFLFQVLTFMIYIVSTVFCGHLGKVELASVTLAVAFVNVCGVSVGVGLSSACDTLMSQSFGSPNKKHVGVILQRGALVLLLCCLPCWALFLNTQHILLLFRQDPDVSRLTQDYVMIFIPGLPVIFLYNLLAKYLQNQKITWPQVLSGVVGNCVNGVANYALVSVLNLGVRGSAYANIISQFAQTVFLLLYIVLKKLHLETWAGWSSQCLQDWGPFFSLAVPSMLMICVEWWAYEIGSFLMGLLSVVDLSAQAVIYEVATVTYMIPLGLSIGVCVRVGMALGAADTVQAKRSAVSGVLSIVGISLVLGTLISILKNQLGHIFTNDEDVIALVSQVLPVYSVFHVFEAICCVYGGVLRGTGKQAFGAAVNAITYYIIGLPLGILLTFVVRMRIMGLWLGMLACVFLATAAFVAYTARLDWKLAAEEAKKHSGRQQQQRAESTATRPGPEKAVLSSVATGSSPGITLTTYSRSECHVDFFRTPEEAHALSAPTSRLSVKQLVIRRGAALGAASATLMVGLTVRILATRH
Chain of CYP2C9 (P11712 whole entry): as the sequence (P11712 whole entry) above
Chain of CYP2D6 (P10635 whole entry): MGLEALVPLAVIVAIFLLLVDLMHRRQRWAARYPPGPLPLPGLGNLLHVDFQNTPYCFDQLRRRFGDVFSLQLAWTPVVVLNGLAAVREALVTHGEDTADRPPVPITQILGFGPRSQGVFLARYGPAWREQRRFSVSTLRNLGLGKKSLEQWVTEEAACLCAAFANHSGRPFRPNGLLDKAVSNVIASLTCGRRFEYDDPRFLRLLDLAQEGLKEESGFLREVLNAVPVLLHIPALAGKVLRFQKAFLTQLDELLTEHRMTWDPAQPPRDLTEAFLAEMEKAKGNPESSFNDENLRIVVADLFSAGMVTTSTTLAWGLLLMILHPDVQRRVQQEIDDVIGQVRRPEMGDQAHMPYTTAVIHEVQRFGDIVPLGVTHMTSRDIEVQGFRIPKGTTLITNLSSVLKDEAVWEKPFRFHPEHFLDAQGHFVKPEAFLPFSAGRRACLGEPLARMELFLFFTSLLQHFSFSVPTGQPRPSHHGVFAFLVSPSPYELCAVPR

Turning to `O=C(O)Cc1ccccc1Nc1c(Cl)cccc1Cl` [Diclofenac], the “Formation Rate Ratio” value in series [1] is given as 7.7; in [2], >>2. For the same compound, the “Formation Rate” value is 845 pmol metabolite/min/mg Supersome protein in [2] (human, 20 min, 6 μM, pH 7.4) and 0 pmol metabolite/min/mg Supersome protein in series [3]. The “Measured Metabolite” value turned out to be 1.56 µM in series [2] (human, 20 min, 6 μM, pH 7.4) and 0 µM in series [3].

On to `C=C[C@H]1C[N@@]2CC[C@H]1C[C@@H]2[C@@H](O)c1ccnc2ccc(OC)cc12` [Quinidine], for which the activity at 10 μM in [4] worked out at 5.61%.

With `CN(C)CCCN1c2ccccc2CCc2ccccc21` [imipramine], the inhibition at 300 μM in series [5] came out at 97.9%. Further, in series [6], the “Percentage Inhibition of OCT2” value is 97.9%.

For the compound `CCCN(CCC)S(=O)(=O)c1ccc(C(=O)O)cc1` [probenecid], in series [7], the “Percentage Inhibition of OAT3” value is recorded as 99.1%. This compound gave an inhibition at 100 μM in series [8] of 99.1%.

Regarding `CCc1nc(N)nc(N)c1-c1ccc(Cl)cc1` [pyrimethamine], in series [9], the inhibition at 1 μM turned out to be 85.3%. In addition, the “Percentage Inhibition of MATE2K” value in [10] is 85.3%.

The values are drawn from patent publication US20230277630A1, “METHODS AND COMPOSITIONS FOR TREATING AMYOTROPHIC LATERAL SCLEROSIS” (Amylyx Pharmaceuticals, Inc., priority 2022, published 2023).
